Assay results published in US10118902B2 (Sanford Burnham Prebys Medical Discovery Institute, priority 2014, dated 2018).

Target: neurotensin receptor 1 (NTR1) (Homo sapiens (Human), UniProt P30989)
Assay: NTR1 dose response, high-content imaging beta-arrestin-GFP assay in NTR1-U2OS cells
Type: cell-based
Conditions: read-out: EC50

Chain of neurotensin receptor 1 (NTR1) (P30989 whole entry, species assumed): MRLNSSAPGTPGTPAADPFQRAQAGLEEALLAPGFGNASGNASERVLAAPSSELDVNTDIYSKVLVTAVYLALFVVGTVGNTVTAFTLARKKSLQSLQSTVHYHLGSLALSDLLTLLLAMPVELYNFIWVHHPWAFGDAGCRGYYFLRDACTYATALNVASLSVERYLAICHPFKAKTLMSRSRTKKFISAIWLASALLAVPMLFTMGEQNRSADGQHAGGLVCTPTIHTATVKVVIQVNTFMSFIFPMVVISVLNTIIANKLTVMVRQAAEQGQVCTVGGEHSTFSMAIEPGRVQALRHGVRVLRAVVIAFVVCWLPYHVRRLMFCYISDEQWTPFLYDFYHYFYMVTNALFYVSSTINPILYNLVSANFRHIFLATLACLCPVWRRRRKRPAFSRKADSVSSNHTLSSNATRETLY

| Compound | EC50 [µM] |
| --- | --- |
| COc1ccccc1C1CCN(c2nc(C3CC3)nc3ccc(CN(C)CCO)cc23)CC1 [Example 89, 2-({2-cyclopropyl-4-[4-(2-methoxy-phenyl)-piperidin-1-yl]-quinazolin-6-ylmethyl}-methyl-amino)-ethanol] | > 10 |
| CCOC(=O)CN(C)c1ccc2nc(C3CC3)nc(N3CCC(c4ccccc4OC)CC3)c2c1 [Example 90, ({2-cyclopropyl-4-[4-(2-methoxy-phenyl)-piperidin-1-yl]-quinazolin-6-yl}-methyl-amino)-acetic acid ethyl ester] | > 10 |
| CCOC(=O)CN(CC(=O)OCC)C1CCN(c2ccc3nc(C4CC4)nc(N4CCC(c5ccccc5OC)CC4)c3c2)CC1 [Example 92] | > 10 |
| CCOC(=O)CN(C)C1CCN(c2ccc3nc(C4CC4)nc(N4CCC(c5ccccc5OC)CC4)c3c2)CC1 [Example 93, [(1-{2-cyclopropyl-4-[4-(2-methoxy-phenyl)-piperidin-1-yl]-quinazolin-6-yl}-piperidin-4-yl)-methyl-amino]-acetic acid ethyl ester] | > 10 |
| COc1ccccc1C1CCN(c2nc(N(C)C)nc3ccc(N(C)CCO)cc23)CC1 [Example 94] | 0.5 to 2 |
| CCCN(C)c1ccc2nc(N(C)C)nc(N3CCC(c4ccccc4OC)CC3)c2c1 [Example 95, 4-(4-(2-methoxyphenyl)piperidin-1-yl)-N2,N2,N6-trimethyl-N6-propylquinazoline-2,6-diamine] | > 10 |
| CCCN(CCC)c1ccc2nc(N(C)C)nc(N3CCC(c4ccccc4OC)CC3)c2c1 [Example 96, 4-(4-(2-methoxyphenyl)piperidin-1-yl)-N2,N2-dimethyl-N6,N6-dipropylquinazoline-2,6-diamine] | > 10 |
| CCCN(C)c1ccc2nc(NC3CCC3)nc(N3CCC(c4ccccc4OC)CC3)c2c1 [Example 97, N2-Cyclobutyl-4-[4-(2-methoxy-phenyl)-piperidin-1-yl]-N6-methyl-N6-propyl-quinazoline-2,6-diamine] | > 10 |
| COc1ccccc1C1CCN(c2nc(NC3CCC3)nc3ccc(N(C)CCO)cc23)CC1 [Example 98, 2-((2-(cyclobutylamino)-4-(4-(2-methoxyphenyl)piperidin-1-yl)quinazolin-6-yl)(methyl)amino)ethanol] | > 10 |
| COc1ccccc1N1CC2(C1)CN(c1nc(C3CC3)nc3ccc(N(C)CCO)cc13)C2 [Example 99, 2-({2-cyclopropyl-4-[6-(2-methoxy-phenyl)-2,6-diaza-spiro [3.3]hept-2-yl]-quinazolin-6-yl}-methyl-amino)-ethanol] | 2 to 10 |
| CCCN(C)c1ccc2nc(C3CC3)nc(N3CC4(CN(c5ccccc5OC)C4)C3)c2c1 [Example 100, {2-cyclopropyl-4-[6-(2-methoxy-phenyl)-2,6-diaza-spiro [3.3]hept-2-yl]-quinazolin-6-yl}-methyl-propyl-amine] | 2 to 10 |
| COc1ccccc1N1CC2(C1)CN(c1nc(C3CC3)nc3ccc(N(C)CCN4CCOCC4)cc13)C2 [Example 101, {2-cyclopropyl-4-[6-(2-methoxy-phenyl)-2,6-diaza-spiro [3.3]hept-2-yl]-quinazolin-6-yl}-methyl-(2-morpholin-4-yl-ethyl)-amine] | > 10 |
| CCCN(C)c1ccc2nc(C3CC3)nc(N3CCC(c4ccccc4OC)CC3=O)c2c1 (stereo not drawn) [Example 102, 1-[2-cyclopropyl-6-(methyl-propyl-amino)-quinazolin-4-yl]-4-(2-methoxy-phenyl)-piperidin-2-one] | > 10 |
| COc1ccccc1C1CCN(c2nc(C3CC3)nc3ccc(N(C)CCO)c(Cl)c23)CC1 [Example 103, 2-({5-chloro-2-cyclopropyl-4-[4-(2-methoxy-phenyl)-piperidin-1-yl]-quinazolin-6-yl}-methyl-amino)-ethanol] | < 0.5 |
| CCCN(C)c1cc2c(N3CCC(c4ccccc4OC)CC3)nc(C3CC3)nc2cc1Cl [Example 104, {7-chloro-2-cyclopropyl-4-[4-(2-methoxy-phenyl)-piperidin-1-yl]-quinazolin-6-yl}-methyl-propyl-amine] | > 10 |
| CCCN(C)c1cc2c(N3CCC(c4ccccc4OC)CC3)nc(C3CC3)nc2cc1F [Example 105, {2-cyclopropyl-7-fluoro-4-[4-(2-methoxy-phenyl)-piperidin-1-yl]-quinazolin-6-yl}-methyl-propyl-amine] | 2 to 10 |
| CCCN(C)c1cc2c(N3CCC(c4ccccc4N4CCC4)CC3)nc(C3CC3)nc2cc1F [Example 106, {4-[4-(2-azetidin-1-yl-phenyl)-piperidin-1-yl]-2-cyclopropyl-7-fluoro-quinazolin-6-yl}-methyl-propyl-amine] | > 10 |
| COc1ccccc1C1CCN(c2nc(C3CC3)nc3cc(Cl)c(N(C)CCO)cc23)CC1 [Example 107, 2-({7-chloro-2-cyclopropyl-4-[4-(2-methoxy-phenyl)-piperidin-1-yl]-quinazolin-6-yl}-methyl-amino)-ethanol] | 0.5 to 2 |

| Compound | EC50 [µM] |
| --- | --- |
| COc1cc(F)ccc1C1CCN(c2nc(C3CC3)nc3ccc(N(C)CCO)cc23)CC1 [Example 108, 2-({2-cyclopropyl-4-[4-(4-fluoro-2-methoxy-phenyl)-piperidin-1-yl]-quinazolin-6-yl}-methyl-amino)-ethanol] | 0.5 to 2 |
| COc1ccc(F)cc1C1CCN(c2nc(C3CC3)nc3ccc(N(C)CCO)cc23)CC1 [Example 109, 2-({2-cyclopropyl-4-[4-(5-fluoro-2-methoxy-phenyl)-piperidin-1-yl]-quinazolin-6-yl}-methyl-amino)-ethanol] | 0.5 to 2 |
| COc1cc(F)ccc1C1CCN(c2nc(C3CC3)nc3cc(F)c(N(C)CCO)cc23)CC1 [Example 110, 2-({2-cyclopropyl-7-fluoro-4-[4-(4-fluoro-2-methoxy-phenyl)-piperidin-1-yl]-quinazolin-6-yl}-methyl-amino)-ethanol] | 0.5 to 2 |
| COc1ccc(F)cc1C1CCN(c2nc(C3CC3)nc3cc(F)c(N(C)CCO)cc23)CC1 [Example 111, 2-({2-cyclopropyl-7-fluoro-4-[4-(5-fluoro-2-methoxy-phenyl)-piperidin-1-yl]-quinazolin-6-yl}-methyl-amino)-ethanol] | 0.5 to 2 |
| COc1cc(F)ccc1C1CCN(c2nc(C3CC3)nc3cc(Cl)c(N(C)CCO)cc23)CC1 [Example 112, 2-({7-chloro-2-cyclopropyl-4-[4-(4-fluoro-2-methoxy-phenyl)-piperidin-1-yl]-quinazolin-6-yl}-methyl-amino)-ethanol] | > 10 |
| COc1ccc(F)cc1C1CCN(c2nc(C3CC3)nc3cc(Cl)c(N(C)CCO)cc23)CC1 [Example 113, 2-({7-chloro-2-cyclopropyl-4-[4-(5-fluoro-2-methoxy-phenyl)-piperidin-1-yl]-quinazolin-6-yl}-methyl-amino)-ethanol] | 2 to 10 |
| COc1cc(F)ccc1C1CCN(c2nc(C3CC3)nc3cc(C)c(N(C)CCO)cc23)CC1 [Example 114, 2-({2-cyclopropyl-4-[4-(4-fluoro-2-methoxy-phenyl)-piperidin-1-yl]-7-methyl-quinazolin-6-yl}-methyl-amino)-ethanol] | 2 to 10 |
| COc1ccc(F)cc1C1CCN(c2nc(C3CC3)nc3cc(C)c(N(C)CCO)cc23)CC1 [Example 115, 2-({2-cyclopropyl-4-[4-(5-fluoro-2-methoxy-phenyl)-piperidin-1-yl]-7-methyl-quinazolin-6-yl}-methyl-amino)-ethanol] | 2 to 10 |
| Cc1cc2nc(C3CC3)nc(N3CCC(c4ccccc4N(C)C)CC3)c2cc1N(C)CCO [Example 116, 2-({2-cyclopropyl-4-[4-(2-dimethylamino-phenyl)-piperidin-1-yl]-7-methyl-quinazolin-6-yl}-methyl-amino)-ethanol] | 0.5 to 2 |
| COc1ccccc1C1CCN(c2nc(C3CC3)nc3cc(C)c(N(C)CCO)cc23)CC1 [Example 117, 2-({2-cyclopropyl-4-[4-(2-methoxy-phenyl)-piperidin-1-yl]-7-methyl-quinazolin-6-yl}-methyl-amino)-ethanol] | < 0.5 |
| CN(C)c1ccccc1C1CCN(c2nc(C3CC3)nc3cc(Cl)c(N(C)CCO)cc23)CC1 [Example 118, 2-({7-chloro-2-cyclopropyl-4-[4-(2-dimethylamino-phenyl)-piperidin-1-yl]-quinazolin-6-yl}-methyl-amino)-ethanol] | 2 to 10 |
| CN(CCO)c1cc2c(N3CCC(c4ccccc4N4CCC4)CC3)nc(C3CC3)nc2cc1Cl [Example 119, 2-({4-[4-(2-azetidin-1-yl-phenyl)-piperidin-1-yl]-7-chloro-2-cyclopropyl-quinazolin-6-yl}-methyl-amino)-ethanol] | 2 to 10 |
| CN(C)c1ccccc1C1CCN(c2nc(C3CC3)nc3cc(F)c(N(C)CCO)cc23)CC1 [Example 120, 2-({2-cyclopropyl-4-[4-(2-dimethylamino-phenyl)-piperidin-1-yl]-7-fluoro-quinazolin-6-yl}-methyl-amino)-ethanol] | < 0.5 |
| Cc1cc2nc(C3CC3)nc(N3CCC(c4ccccc4N4CCC4)CC3)c2cc1N(C)CCO [Example 121, 2-({4-[4-(2-azetidin-1-yl-phenyl)-piperidin-1-yl]-2-cyclopropyl-7-methyl-quinazolin-6-yl}-methyl-amino)-ethanol] | 0.5 to 2 |
| CCCN(C)c1cc2c(N3CCC(c4ccccc4OC)CC3)nc(C3CC3)nc2cc1C [Example 122, {2-cyclopropyl-4-[4-(2-methoxy-phenyl)-piperidin-1-yl]-7-methyl-quinazolin-6-yl}-methyl-propyl-amine] | 0.5 to 2 |
| CCCN(C)c1cc2c(N3CCC(c4cc(F)ccc4OC)CC3)nc(C3CC3)nc2cc1C [Example 123, {2-cyclopropyl-4-[4-(5-fluoro-2-methoxy-phenyl)-piperidin-1-yl]-7-methyl-quinazolin-6-yl}-methyl-propyl-amine] | > 10 |
| COc1ccccc1C1CCN(c2nc(C3CC3)nc3c(C)cc(N(C)CCO)cc23)CC1 [Example 125, 2-({2-cyclopropyl-4-[4-(2-methoxy-phenyl)-piperidin-1-yl]-8-methyl-quinazolin-6-yl}-methyl-amino)-ethanol] | < 0.5 |
| COc1ccccc1C1CCN(c2nc(C3CC3)nc3ccc(N(C)CCO)c(C)c23)CC1 [Example 126, 2-({2-cyclopropyl-4-[4-(2-methoxy-phenyl)-piperidin-1-yl]-5-methyl-quinazolin-6-yl}-methyl-amino)-ethanol] | 0.5 to 2 |
